# Measured values taken from US6166290A, “Glutathione-S-conjugate transport in plants” (The Trustees of the University of Pennsylvania, priority 1997, dated 2000).
# Where “and” joins values, the source holds several entries; their conditions need not be identical. Identical values can stand only once. Like-named read-outs stand apart in the source and are kept apart here.
# Columns and labels:
# [1] = molecular target: T1, YCF1 (vacuolar membrane vesicles purified from DTY165 cells) (Saccharomyces cerevisiae, UniProt P39109); assay: biochemical; format: biochemical; settings: for 109Cd.GS2 uptake as percentage of control: 10 min; for 109Cd uptake of Mono-Q fraction: 5 μM gramicidin-D
# T1 construct: endogenous in cells; host or cells: S. cerevisiae DTY165 (wild type YCF1), vacuolar membrane vesicles
# Method: (§1) In experiments involving cadmium transport, dithiothreitol and EGTA were removed from the suspension medium to prevent the attenuation of YCF1-dependent Cd^2+ transport otherwise exerted by these compounds. Vesiculated vacuolar membranes were subjected to three cycles of 50-fold dilution into simplified suspension medium (1.1 M glycerol, 5 mM Tris-Mes, pH 8.0), centrifugation at 100,000× g for 35 minutes and resuspension in the same medium before use.
# (§2) Singly radiolabeled ^109 Cd.GSn and doubly radio-labeled ^109 Cd[^3 H].GS^n complexes were prepared by sequential gel-filtrationand anion-exchange chromatography of the reaction products generated by incubating 20 mM ^109 CdSO4 (78.4 mCi/mmol) with 40 mM GSH or 40 mM [^3 H]GSH (240 mCi/mmol) in 15 ml 10 mM phosphate buffer (pH 8.0) containing 150 mM KNO3 at 45° C. for 24 hours. For gel-filtration, 2 ml aliquots of the reaction mixture were applied to a column (40×1.5 cm ID) packed with water-equilibrated Sephadex G-1 5, eluted with deionized water and ^109 Cd and/or ^3 H in the fractions was measured by liquid scintillation counting. The fractions encompassed by each of the two ^109 Cd.GSn peaks identified were pooled, lyophilized and redissolved in 4 ml of loading buffer (5 mM Tris-Mes, pH 8.0). For anion-exchange chromatography, 0.5 ml aliquots of the resuspended lyophilizates from gel-filtration chromatography were applied to a Mono-Q HR5/5 column (Pharmacia) equilibrated with the same buffer. Elution was with a linear gradient of NaCl (0.5 ml/minute; 0-500 mM) dissolved in loading buffer. The individual fractions corresponding to the major peaks of ^109 Cd obtained from the Mono-Q column (one each for the peaks resolved by gel-filtration chromatography) were pooled, lyophilized and resuspended in 4 ml deionized water after liquid scintillation counting.
# (§3) MgATP-energized, uncoupler-insensitive ^109 Cd^2+ uptake by vacuolar membrane vesicles was measured at 25° C. in 200 μl reaction volumes containing 3 mM ATP, 3 mM MgSO4, 5 μM gramicidin-D, 10 mM creatine phosphate, 16 units/ml creatine kinase, 50 mM KCl, 400 mM sorbitol, 25 mM Tris-Mes (pH 8.0) and the indicated concentrations of ^109 CdSO4, GSH or ^109 Cd- and/or ^3 H-labeled purified Cd.GSn complexes as described herein except that the wash media contained 100 μM CdSO4 in addition to sorbitol (400 mM) and Tris-Mes (3 mM, pH 8.0).
# [2] = molecular target: T1, YCF1 (vacuolar membrane vesicles purified from DTY165 cells); assay: [3H]DNP-GS uptake by vacuolar membrane vesicles purified from DTY165 cells; format: biochemical
# Method: (§4) For the routine preparation of vacuolar membrane vesicles, 15 ml of stationary phase cultures of DTY165 or DTY167 were diluted into 1-liter volumes of fresh YPD medium, grown for 24 hours at 30° C. to an OD600 nm of approximately 0.8 and collected by centrifugation. After washing with distilled water, the cells were converted to spheroplasts with Zymolyase 20T (ICN) (Kim et al., 1994, supra) and intact vacuoles were isolated by flotation centrifugation of spheroplast lysates on Ficoll 400 step gradients as described by Roberts et al. (1991, Methods. Enzymol. 194:644-661). Both the spheroplast lysis buffer and Ficoll gradients contained 2 mg/ml bovine serum albumin, 1 μg/ml aprotinin, 1 μg/ml leupeptin, 1 μg/ml pepstatin, and 1 mM PMSF to minimize proteolysis. The resulting vacuole fraction was vesiculated in 5 mM MgCl2, 25 mM KCl, 10 mM Tris-Mes (pH 6.9) containing 2 mg/ml bovine serum albumin, 1 μg/ml aprotinin, 1 μg/ml leupeptin, 1 μg/ml pepstatin, and 1 mM PMSF, pelleted by centrifugation at 37,000× g for 25 min, and resuspended in suspension medium (1.1 M glycerol, 2 mM dithiothreitol, 1 mM Tris-EGTA, 2 mg/ml bovine serum albumin, 1 μg/ml aprotinin, 1 μg/ml leupeptin, 1 μg/ml pepstatin, 1 mM PMSF, 5 mM Tris-Mes, pH 7.6) (Kim et al., 1995, J. Biol. Chem. 270:2630-2635).
# (§5) Unless otherwise indicated, [^3 H]DNP-GS uptake was measured at 25° C. in 200 μl reaction volumes containing 3 mM ATP, 3 mM MgSO4, 5 μM gramicidin-D, 10 mM creatine phosphate, 16 units/ml creatine kinase, 50 mM KC 1, 1 mg/ml bovine serum albumin, 400 mM sorbitol, 25 mM Tris-Mes (pH 8.0), and 66.2 μM [^3 H]DNP-GS (8.7 mCi/mmol) (Li et al., 1995, supra). […] Uptake was initiated by the addition of vacuolar membrane vesicles (10-15 μg of membrane protein), brief mixing of the samples on a vortex mixer and uptake was then allowed to proceed for 1-60 minutes. Uptake was terminated by the addition of 1 ml of ice-cold wash medium (400 mM sorbitol, 3 mM Tris-Mes, pH 8.0) and vacuum filtration of the suspension through prewetted Millipore HA cellulose nitrate membrane filters (pore diameter, 0.45 μm). The filters were rinsed twice with 1 ml of ice-cold wash medium and air-dried, and radioactivity was determined by liquid scintillation counting in BCS mixture (Amersham Corp.). Nonenergized [^3 H]DNP-GS uptake and extravesicular solution trapped on the filters were enumerated by the same procedure except that ATP and Mg^2 +were omitted from the uptake medium.
# [3] = test system: vacuolar membrane vesicles purified from DTY167 cells (ycf1Δ mutant); format: biochemical, Saccharomyces cerevisiae
# Method: as §4, §5
# [4] = test system: vacuolar membrane vesicles purified from DTY167 cells (ycf1Δ mutant); format: biochemical, Saccharomyces cerevisiae; settings: for 109Cd.GS2 uptake as percentage of control: 10 min; for 109Cd uptake of Mono-Q fraction: 5 μM gramicidin-D
# Method: as §1, §2, §3
# [5] = 5 μM gramicidin D, GSH, GSSG 1 mM, GS-conjugates 100 μM
# [6] = 5 μM gramicidin D, GSH, GSSG 1 mM, GS-conjugates 100 μM, 10 min
# [7] = 66.2 μM DNP-GS, 3 mM MgATP (omitted with MgAMP-PNP), MgAMP-PNP 3 mM, bafilomycin A1 0.5 μM, FCCP 5 μM, gramicidin D 5 μM, NH4Cl 1 mM
# [8] = as Table 1 concentrations, 10 min
# [9] = 50 μM 109Cd.GS2, bafilomycin A1 0.5 μM, FCCP 5 μM, gramicidin-D 5 μM, NH4Cl 1 mM
# [10] = 50 μM (as Cd), pretreated 1:4 with 2-ME, 60° C., 10 minutes
# [11] = 5 μM gramicidin D, read-out: I50 for MgATP-dependent, uncoupler-insensitive DNP-GS uptake
# T1 sequence (P39109 whole entry): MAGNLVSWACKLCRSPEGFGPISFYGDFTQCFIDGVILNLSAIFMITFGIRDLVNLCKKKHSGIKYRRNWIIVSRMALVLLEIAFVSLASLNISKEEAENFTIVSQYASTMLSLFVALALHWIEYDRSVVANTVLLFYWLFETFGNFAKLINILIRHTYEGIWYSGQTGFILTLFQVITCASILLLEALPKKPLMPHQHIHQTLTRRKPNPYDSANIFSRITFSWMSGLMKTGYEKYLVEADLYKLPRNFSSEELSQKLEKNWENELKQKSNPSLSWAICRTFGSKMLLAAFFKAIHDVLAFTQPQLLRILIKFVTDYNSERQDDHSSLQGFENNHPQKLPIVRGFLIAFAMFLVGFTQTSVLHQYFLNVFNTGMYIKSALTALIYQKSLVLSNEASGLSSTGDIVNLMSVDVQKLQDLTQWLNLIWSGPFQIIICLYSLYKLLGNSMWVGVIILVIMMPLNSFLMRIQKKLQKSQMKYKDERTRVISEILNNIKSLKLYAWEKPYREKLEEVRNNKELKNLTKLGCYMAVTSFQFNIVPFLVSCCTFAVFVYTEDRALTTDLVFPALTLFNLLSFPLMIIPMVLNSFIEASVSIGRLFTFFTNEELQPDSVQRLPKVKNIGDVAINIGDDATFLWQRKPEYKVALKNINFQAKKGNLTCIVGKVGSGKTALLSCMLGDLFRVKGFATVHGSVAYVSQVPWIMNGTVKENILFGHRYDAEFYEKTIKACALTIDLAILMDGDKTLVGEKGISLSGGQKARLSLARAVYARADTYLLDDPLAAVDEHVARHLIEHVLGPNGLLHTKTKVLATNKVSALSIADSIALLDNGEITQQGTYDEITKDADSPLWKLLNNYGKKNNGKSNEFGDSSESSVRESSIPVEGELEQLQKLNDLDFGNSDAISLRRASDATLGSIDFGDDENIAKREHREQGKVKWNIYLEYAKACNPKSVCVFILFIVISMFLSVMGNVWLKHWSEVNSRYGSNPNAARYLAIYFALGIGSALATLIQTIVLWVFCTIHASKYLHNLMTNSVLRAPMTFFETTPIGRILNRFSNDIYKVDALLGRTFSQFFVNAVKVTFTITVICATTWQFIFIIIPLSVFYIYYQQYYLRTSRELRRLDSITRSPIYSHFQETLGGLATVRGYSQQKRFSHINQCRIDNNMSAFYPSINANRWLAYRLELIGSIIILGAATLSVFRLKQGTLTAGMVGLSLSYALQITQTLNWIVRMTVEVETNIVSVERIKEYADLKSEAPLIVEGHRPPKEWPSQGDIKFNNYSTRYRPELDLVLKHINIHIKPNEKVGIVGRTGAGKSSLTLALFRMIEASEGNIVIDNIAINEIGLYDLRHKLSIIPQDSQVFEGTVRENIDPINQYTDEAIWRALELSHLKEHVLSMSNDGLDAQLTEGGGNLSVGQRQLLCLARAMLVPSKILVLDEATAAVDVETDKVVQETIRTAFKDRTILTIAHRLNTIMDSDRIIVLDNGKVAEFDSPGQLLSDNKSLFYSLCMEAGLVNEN
molecule,measurement,setting,value
OCCS [2-mercaptoethanol],inhibition of Cd2+ uptake by pretreatment of HMW-Cd.GS,[1]; pretreatment with 2-mercaptoethanol,> 80%
[N-]=[N+]=Nc1ccc(C(=O)CSC[C@H](NC(=O)CC[C@H](N)C(=O)O)C(=O)NCC(=O)O)cc1 [Azidophenacyl-GS],"MgATP-dependent, uncoupler-insensitive DNP-GS uptake plus compound",[2]; [5],16.0 ± 1.4 nmol/mg/10 minutes
same,"MgATP-dependent, uncoupler-insensitive DNP-GS uptake as percentage of control",[2]; [6],33.5%
same,inhibition of DNP-GS uptake,[2]; 100 μM compound,about 50%
same,"MgATP-dependent, uncoupler-insensitive DNP-GS uptake plus compound",[3]; [5],5.2 ± 0.3 nmol/mg/10 minutes
same,"MgATP-dependent, uncoupler-insensitive DNP-GS uptake as percentage of control",[3]; [6],80.0%
CO/C1=C\C(C)=C\[C@@H](C)[C@@H](O)[C@@H](C)C/C(C)=C/C=C/[C@H](OC)[C@@H]([C@@H](C)[C@@H](O)[C@H](C)[C@@]2(O)C[C@@H](O)[C@H](C)[C@@H](C(C)C)O2)OC1=O [Bafilomycin A1],DNP-GS uptake plus the compound indicated,[2]; [7],43.2 ± 1.0 nmol/mg/10 minutes
same,DNP-GS uptake as percentage of control plus the compound indicated,[2]; [8],55.6%
same,DNP-GS uptake plus the compound indicated,[3]; [7],4.3 ± 0.3 nmol/mg/10 minutes
same,DNP-GS uptake as percentage of control plus the compound indicated,[3]; [8],27.9%
same,109Cd.GS2 uptake plus addition,[1]; [9],81.8 ± 6.0 nmol/mg/10 minutes
same,109Cd.GS2 uptake as percentage of control,[1]; as Table 7 concentrations,76.6%
same,decrease of MgATP-dependent Cd.GS2 uptake,[1]; text to Table 7,22%
same,109Cd.GS2 uptake plus addition,[4]; [9],12.8 ± 3.6 nmol/mg/10 minutes
same,109Cd.GS2 uptake as percentage of control,[4]; as Table 7 concentrations,74.0%
N#CC(C#N)=NNc1ccc(OC(F)(F)F)cc1 [FCCP],DNP-GS uptake plus the compound indicated,[2],47.4 ± 1.7 nmol/mg/10 minutes
same,DNP-GS uptake as percentage of control plus the compound indicated,"[2]; dty165 vacuolar membrane vesicles, 10 min",61.0
same,DNP-GS uptake plus the compound indicated,[3],6.4 ± 0.3 nmol/mg/10 minutes
same,DNP-GS uptake as percentage of control plus the compound indicated,"[3]; dty167 vacuolar membrane vesicles, 10 min",41.8
same,109Cd.GS2 uptake plus addition,[1],62.2 ± 11.4 nmol/mg/10 minutes
same,decrease of MgATP-dependent Cd.GS2 uptake,[1]; vacuolar membrane vesicles,22%
same,109Cd.GS2 uptake as percentage of control,[1]; vacuolar membrane vesicles,58.8
same,109Cd.GS2 uptake plus addition,[4],10.2 ± 1.6 nmol/mg/10 minutes
same,109Cd.GS2 uptake as percentage of control,[4]; vacuolar membrane vesicles,59.0
"N[C@@H](CCC(=O)N[C@@H](C[S][Cd][S]C[C@H](NC(=O)CC[C@H](N)C(=O)O)C(=O)NCC(=O)O)C(=O)NCC(=O)O)C(=O)O [HMW-Cd.GS, bis(glutathionato)cadmium]","Vmax for MgATP-dependent, uncoupler-insensitive Cd.GS2 uptake",[1],157.2±60.7 nmol/mg/10 minutes
same,"109Cd.GS2 uptake, control","[1]; 50 μM 109Cd.GS2, no addition",105.8 ± 12.4 nmol/mg/10 minutes
same,109Cd uptake of Mono-Q fraction,[1]; 50 μM (as Cd),66.3 ± 2.7 nmol/mg/10 min
same,109Cd uptake after 2-ME pretreatment,[1]; [10],11.9 ± 2.4 nmol/mg/10 min
same,"Vmax for MgATP-dependent, uncoupler-insensitive Cd.GS2 uptake",[1]; listed as Cd.GS2,157.2±30.4 nmol/mg/10 minutes
same,Km,"[1]; read-out: Km for MgATP-dependent, uncoupler-insensitive Cd.GS2 uptake",39.1 ± 14.1 µM
same,"109Cd.GS2 uptake, control","[4]; 50 μM 109Cd.GS2, no addition",17.3 ± 2.7 nmol/mg/10 minutes
same,109Cd uptake of Mono-Q fraction,[4]; 50 μM (as Cd),5.6 ± 2.6 nmol/mg/10 min
same,109Cd uptake after 2-ME pretreatment,[4]; [10],4.4 ± 3.0 nmol/mg/10 min
Nc1ncnc2c1ncn2[C@@H]1O[C@H](COP(=O)(O)OP(=O)(O)NP(=O)(O)O)[C@@H](O)[C@H]1O [MgAMP-PNP],DNP-GS uptake plus the compound indicated,[2]; [7],2.5 ± 0.5 nmol/mg/10 minutes
same,DNP-GS uptake as percentage of control plus the compound indicated,[2]; [8],3.2%
same,DNP-GS uptake plus the compound indicated,[3]; [7],1.4 ± 0.3 nmol/mg/10 minutes
same,DNP-GS uptake as percentage of control plus the compound indicated,[3]; [8],9.1%
CC[C@]1(O)C[C@@H]2CN(CCc3c([nH]c4ccccc34)[C@@](C(=O)OC)(c3cc4c(cc3OC)N(C)[C@H]3[C@@](O)(C(=O)OC)[C@H](OC(C)=O)[C@]5(CC)C=CCN6CC[C@]43[C@@H]65)C2)C1 [Vinblastine],IC50,[2]; [11],89 µM and 88.8 µM
same,IC50,[3]; [11],> 500 µM
MgATP,Vmax(MgATP) of uncoupler-insensitive DNP-GS uptake,"[2]; 66.2 μM DNP-GS, 5 μM gramicidin D",38.4±5.6 nmol/mg/10 minutes
same,"DNP-GS uptake as percentage of control, MgATP omitted","[2]; --MgATP, 66.2 μM DNP-GS",2.8%
same,"DNP-GS uptake, MgATP omitted","[2]; --MgATP, 66.2 μM DNP-GS",2.2 ± 0.4 nmol/mg/10 minutes
same,Km,"[2]; read-out: Km(MgATP) of uncoupler-insensitive DNP-GS uptake, 66.2 μM DNP-GS, 5 μM gramicidin D, 10 minutes",86.5 ± 29.5 µM
same,"DNP-GS uptake as percentage of control, MgATP omitted","[3]; --MgATP, 66.2 μM DNP-GS",9.7%
same,"DNP-GS uptake, MgATP omitted","[3]; --MgATP, 66.2 μM DNP-GS",1.5 ± 0.6 nmol/mg/10 minutes
mono(glutathionato)cadmium [LMW-Cd.GS],109Cd uptake of Mono-Q fraction,[1]; 50 μM (as Cd),4.4 ± 0.8 nmol/mg/10 min
same,uptake of LMW-109Cd.GS,[1]; all of the concentrations examined,negligible
same,109Cd uptake of Mono-Q fraction,[4]; 50 μM (as Cd),3.9 nmol/mg/10 min
